Experiments:
[1] = RiboTAC cellular uptake quantification; format: in vitro ADME; settings: human, MDA-MB-231 cells; 5 μM in culture medium
Procedure: (§1) A time-course for RiboTAC degradation of pre-miR-21 was completed and compared to its cellular permeability. […] Additionally, degradation of pre-miR-21 is first detectable after 48 h of treatment with 7 (FIG. 10B).
(§2) RiboTAC Cellular Uptake Quantification. MDA-MB-231 cells were cultured as described in “Cell Culture” with a final cell density of 13,500 cells per well. Cells were treated with 7 (5 μM) for 0, 0.25, 0.5, 0.75, 1, 2, 3, 6, 12, 24, and 48 hours. Following treatment, cells were rapidly washed with 1×PBS to remove any unincorporated compound. Cells were then detached using 75 μl trypsin, immediately homogenized and flash frozen. The cell homogenate was analyzed using a Sciex 6500 mass spectrometer operated in multiple reaction monitoring mode with the transition m/z=1078.3/900.3. Homogenate drug levels were determined by comparison to a standard curve prepared in untreated cell homogenate. Calculated concentrations, (ng drug)/(ml homogenate) or μM drug inside cell, were fit to a one-phase association model using GraphPad Prism.

MDA-MB-231 cells = experiment: RiboTAC cellular uptake quantification; format: in vitro ADME
Procedure: as §1, §2

MCF-10A cells = experiment: Boyden chamber invasion assay, MCF-10A with forced pre-miR-21 expression; format: cell-based; settings: WT pre-miR-21 plasmid
Procedure: The effect of the RiboTAC on a miR-21-associated invasive phenotype was next assessed. Treatment with 5 μM of 7 reduced the invasiveness of MDA-MB-231 cells, by ˜30% (p<0.05) (FIG. 4E-F). […] While forced expression of a mutant pre-miR-21 in which the Dovitinib-binding site is mutated also produced an invasive phenotype, the cells were insensitive to treatment with 7 (FIG. 12).
MCF-10A cells were first transfected with either a plasmid expressing pre-miR-21 (Addgene; catalog #21114) or a plasmid encoding a pre-miR-21 mutant (custom purchased from GenScript USA, Inc, FIG. 8) using jetPRIME (Polyplus), per the manufacturer's protocol (3.2 μg of plasmid per 60 mm dish). After transfection, cells (50,000 per insert) were seeded into the hanging inserts in serum free growth medium, with or without compound (0.1% final DMSO concentration). The assay was then completed as described for the MDA-MB-231 cells.

- half-life at 5 μM [1]: 2.4 h
- time to reach plateau of cellular accumulation (MDA-MB-231 cells; 5 μM in culture medium): about 8 h
- concentration inside cells (MDA-MB-231 cells; after 48 h treatment with 5 μM in culture medium): 3.6 ± 1.2 µM
Structure (SMILES): CNC(=O)[C@H](c1ccccc1)N(C)Cc1ccc(-c2cccc(-c3sccc3NC(=O)CCOCCOCCOCCC(=O)NCCN3CCN(c4ccc5nc(-c6c(N)c7c(F)cccc7[nH]c6=O)[nH]c5c4)CC3)c2)cc1 [RiboTAC 7, (S)—N-(2-(4-(2-(4-amino-5-fluoro-2-oxo-1,2-dihydroquinolin-3-yl)-1H-benzo[d]imidazol-6-yl)piperazin-1-yl)ethyl)-3-(2-(2-(3-((2-(4′-((methyl(2-(methylamino)-2-oxo-1-phenylethyl)amino)methyl)-[1,1′-biphenyl]-3-yl)thiophen-3-yl)amino)-3-oxopropoxy)ethoxy)ethoxy)propanamide]
- invasive phenotype induced by forced expression of pre-miR-21 (MCF-10A cells): rescued
